Measured values: US20030070184A1, “LIGANDS FOR DISCOIDIN DOMAIN RECEPTOR TYROSINE KINASES AND COMPLEXES THEREOF” (priority 1999, published 2003)
Where “and” joins values, the source holds several entries; their conditions need not be identical. Equal entries are not always repeated. Entries after “also recorded” stand apart in the source; their conditions may differ. Where a SMILES comes first, the peptide text is derived from it. [ ]: non-standard residue; d: D form. pY = N[C@@H](Cc1ccc(OP(=O)(O)O)cc1)C(=O)O

Experiments:
[1] = biological target: T1, Shc PTB domain (Homo sapiens, UniProt P29353); test: Surface plasmon resonance competition: GST-Shc PTB domain binding to immobilized middle T antigen phosphopeptide; settings: IC50, inhibition of binding of the Shc PTB domain to the middle T antigen phosphopeptide, BIAcore, soluble competing phosphopeptide
T1 construct: the PTB domain fusion construct comprises amino acids 1-225 of human p52 Shc; made in house; host or cells: E. coli
T1 sequence (P29353 1-225 isoform P29353-2): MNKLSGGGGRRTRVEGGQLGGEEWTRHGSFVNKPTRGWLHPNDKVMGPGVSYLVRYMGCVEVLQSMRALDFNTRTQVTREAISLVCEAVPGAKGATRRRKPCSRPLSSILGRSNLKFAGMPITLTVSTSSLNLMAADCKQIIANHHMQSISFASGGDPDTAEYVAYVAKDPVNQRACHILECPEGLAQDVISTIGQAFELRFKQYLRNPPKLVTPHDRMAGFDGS
Procedure: Surface plasmon resonance—experiments were done with a BIAcore instrument (Pharmacia). A phosphopeptide corresponding to the NPXY sequence in the polyomavirus middle T antigen (mT) (LSLLSNPTpYSVNSK) was absorbed to the surface of a biosensor chip. Binding of soluble GST-Shc PTB domain fusion protein to the mT peptide was measured in the presence or absence of competing soluble phosphopeptides based on the sequences around Tyr 513 of DDR1b or Tyr 490 of the NGFR (HIIENPQpYFSD) (21).
Experiments were done with a BIAcore instrument (Pharmacia). A phosphopeptide corresponding to the NPXY sequence in the polyomavirus middle T antigen (LSLLSNPTpYSVMRSK) was absorbed to the surface of a biosensor chip. Binding of soluble GST-Shc PTB domain fusion protein to the middle T peptide was measured in presence or absence of competing soluble phosphopeptides based on the sequences around tyrosine 513 of DDR1b (ALLLSNPApYRLLLA) or tyrosine 490 of the NGF receptor (HIIENPQpYFSD).

[2] = tested on: DDR receptors; test: Effect of other agents on DDR activity / collagen-induced DDR tyrosine phosphorylation; type: cell-based; settings: for effect on DDR activity: collagen-associated molecules
[3] = biological target: T2, DDR1b (Homo sapiens, UniProt Q08345); test: Tyrosine phosphorylation of endogenous DDR1b in carcinoma cells (T-47D; A431), immunoprecipitation and anti-phosphotyrosine blot; type: cell-based; settings: T-47D, 90 min; collagens/gelatin 10 μg/ml, orthovanadate 1 mM
T2 construct: endogenous in cells; host or cells: T-47D human mammary carcinoma cells (A431 also named)
T2 sequence (Q08345 19-913): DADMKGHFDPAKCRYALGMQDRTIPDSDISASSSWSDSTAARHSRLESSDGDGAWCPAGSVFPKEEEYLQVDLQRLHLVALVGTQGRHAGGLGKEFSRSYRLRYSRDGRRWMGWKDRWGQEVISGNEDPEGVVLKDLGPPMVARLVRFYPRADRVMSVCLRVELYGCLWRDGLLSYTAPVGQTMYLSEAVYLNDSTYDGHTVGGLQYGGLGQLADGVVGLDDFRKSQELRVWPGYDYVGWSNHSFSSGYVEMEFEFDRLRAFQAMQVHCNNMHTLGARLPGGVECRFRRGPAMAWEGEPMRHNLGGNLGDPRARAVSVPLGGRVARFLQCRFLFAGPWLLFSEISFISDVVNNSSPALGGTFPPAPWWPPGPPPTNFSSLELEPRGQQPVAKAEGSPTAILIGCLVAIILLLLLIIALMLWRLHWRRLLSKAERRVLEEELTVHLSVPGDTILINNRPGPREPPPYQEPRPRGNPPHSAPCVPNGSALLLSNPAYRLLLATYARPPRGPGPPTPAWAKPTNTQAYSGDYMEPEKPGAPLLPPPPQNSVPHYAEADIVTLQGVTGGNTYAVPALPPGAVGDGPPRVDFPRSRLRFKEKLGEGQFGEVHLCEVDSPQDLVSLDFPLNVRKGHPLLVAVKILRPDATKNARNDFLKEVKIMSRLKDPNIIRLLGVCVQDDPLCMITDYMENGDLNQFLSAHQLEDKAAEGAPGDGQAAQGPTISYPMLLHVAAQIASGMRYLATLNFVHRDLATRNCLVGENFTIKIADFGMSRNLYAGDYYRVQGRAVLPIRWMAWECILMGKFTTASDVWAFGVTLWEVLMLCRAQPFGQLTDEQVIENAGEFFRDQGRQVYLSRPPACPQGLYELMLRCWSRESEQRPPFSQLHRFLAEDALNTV
From the text: To investigate the effects of collagen on cells that express endogenous DDR tyrosine kinases, the mammary carcinoma cell line T-47D was employed. Previous results have shown that DDR1 is highly expressed in human carcinoma cell lines, in particular, the breast cancer cell lines BT-20, MDA-MB-175 and T-47D (1) (Perez et al., 1996). […] The time course of endogenous DDR1b tyrosine phosphorylation in T-47D cells was even slower than in 293 cells, with maximal activation being achieved only after stimulation for 18 hours.
To further investigate the role of different types of collagen in the activation of DDR1 and DDR2, collagen types I, II, III and V purified from human placenta and collagen type II from bovine tracheal cartilage were obtained. To test their ability to induce receptor tyrosine phosphorylation, 293 cells overexpressing DDR1 or DDR2 were employed. […] The various types of collagen were also tested for their ability to stimulate tyrosine phosphorylation of endogenous DDR1b present in T-47D cells. For this purpose, DDR1b was immunoprecipitated from lysates of stimulated T-47D cells and analyzed by Western blotting with anti-phosphotyrosine antibodies. […] As previously shown, DDR1 tyrosine phosphorylation could also be activated by treating cells with 1 mM orthovanadate, an inhibitor of tyrosine phosphatases. Furthermore, gelatin which contains heat denatured collagen was tested for its capacity to induce DDR1b tyrosine phosphorylation.
Integrins of the type α1β1 and α2β1 have long been known to be receptors for collagen. Therefore, tests were conducted to determine if these integrins are somehow involved in the activation of DDR1b. The mammary carcinoma cell line T-47D, which endogenously expresses the b-isoform of DDR1, was used. Monoclonal antibodies directed against the extracellular domains of integrins can block binding to collagen and therefore signaling of integrins. T-47D cells were treated with antibody A2-IIE10 against α2-integrin and antibody DE9 against β1-integrin (both from Upstate Biotechnology) in the absence or presence of 10 μg/ml collagen type I overnight. DDR1b or Shc were immunoprecipitated from cellular lysates and analyzed by Western blotting with antiphosphotyrosine antibody.
DDR1b and DDR2 were transfected into 293 cells and were stimulated with 10 µg/ml mouse collagen type I for different periods of time. (FIG. 9A and FIG. 9B) Total cellular lysates were probed with antiphosphotyrosine antibody. Maximal activation is seen 90 min after stimulation of DDR1b (FIG. 9A) and DDR2 (FIG. 9B). (FIG. 9C) Human mammary carcinoma T-47D cells were cultivated on 10 cm dishes to confluence and starved in 0.5% serum overnight. Cells were stimulated with collagen type I for various periods of time and lysed. DDR1b was immunoprecipitated from the lysates and analyzed by Western blotting with antiphosphotyrosine antibody. Maximal phosphorylation of DDR1b is seen after stimulation for 18 h. An unidentified, tyrosine phosphorylated protein with an apparent molecular weight of 115 kDa is copurified in the immunoprecipitations. […] Prolonged stimulation with collagen increases the processing of DDR1b in T-47D cells, indicated by an additional 62 kDa band. (FIGS. 9E and 9F) DDR1b was immunoprecipitated from overexpressing 293 cells (E) and T-47D (FIG. 9F) cells and subjected to an in vitro kinase reaction. The incorporation of [^32P]-phosphate is monitored by SDS-PAGE followed by autoradiograpy.

[4] = biological target: T3, DDR2 (Homo sapiens, UniProt Q16832); test: DDR2 tyrosine phosphorylation in transfected 293 cells (anti-phosphotyrosine Western blot); type: cell-based; settings: 90 min; for ligand activity: induction of DDR2 tyrosine phosphorylation: soluble agent added to medium of transfected 293 cells, 10 μg/ml
T3 construct: expressed in transfected cells; host or cells: 293 cells, CMV-based expression vector
T3 sequence (Q16832 22-855): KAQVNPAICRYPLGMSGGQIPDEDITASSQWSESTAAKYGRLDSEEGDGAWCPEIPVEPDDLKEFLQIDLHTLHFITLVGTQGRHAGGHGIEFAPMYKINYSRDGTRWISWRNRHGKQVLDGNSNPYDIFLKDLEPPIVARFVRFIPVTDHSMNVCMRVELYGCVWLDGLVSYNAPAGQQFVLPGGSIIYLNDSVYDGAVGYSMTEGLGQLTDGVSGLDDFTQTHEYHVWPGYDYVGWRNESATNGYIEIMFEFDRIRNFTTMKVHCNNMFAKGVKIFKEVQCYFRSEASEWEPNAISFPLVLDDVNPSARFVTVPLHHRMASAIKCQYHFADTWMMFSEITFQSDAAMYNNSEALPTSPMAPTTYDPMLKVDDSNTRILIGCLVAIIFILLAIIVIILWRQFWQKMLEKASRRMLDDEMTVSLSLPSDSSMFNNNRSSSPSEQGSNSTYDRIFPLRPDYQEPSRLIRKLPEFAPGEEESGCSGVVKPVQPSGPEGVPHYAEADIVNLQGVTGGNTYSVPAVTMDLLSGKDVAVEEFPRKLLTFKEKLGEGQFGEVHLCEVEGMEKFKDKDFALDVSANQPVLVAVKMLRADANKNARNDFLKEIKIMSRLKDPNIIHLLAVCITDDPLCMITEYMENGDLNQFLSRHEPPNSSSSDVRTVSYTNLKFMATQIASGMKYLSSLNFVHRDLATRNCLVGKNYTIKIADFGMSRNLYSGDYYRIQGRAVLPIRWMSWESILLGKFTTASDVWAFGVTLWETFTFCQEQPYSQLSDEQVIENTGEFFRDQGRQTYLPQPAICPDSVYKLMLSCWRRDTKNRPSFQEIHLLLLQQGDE
Procedure: (§1) Semiconfluent 293 cells were transfected by calcium-phosphate precipitation with a cytomegalovirus-based expression vector. Sixteen hours later, cells were transferred to serum-free media for another 24 h. Cells were stimulated with 10 μg/ml collagen for 90 min and lysed with 1% Triton-X 100, 50 mM HEPES (pH 7.5), 150 mM NaCl, 1.5 mM MgCl2, 5 mM EGTA, 5 mM EDTA, 10% glycerol, 10 mM NaF, 1 mM phenylmethylsulfonyl fluoride (PMSF), 1 mM Na-orthovanadate, 10 μg/ml aprotinin. The cellular lysates were centrifuged 10 min at 4° C. and 13,000 rpm and aliquots of the supernatant were subjected to SDS-PAGE or further analyzed by immunoprecipitation with specific antibodies for 3 h at 4° C. on a rotating wheel. The immunocomplex was washed three times with 20 mM HEPES (pH 7.5), 150 mM NaCl, 0.1% Triton, 10% glycerol and analyzed by SDS-PAGE. Proteins were transferred to nitrocellulose membrane (Schleicher & Schuell) and immunoblotted with antibodies diluted 1:500 in 50 mM Tris (pH 7.5), 150 mM NaCl, 5 mM EDTA, 0.05% gelatin overnight. Western blots were developed using horseradish peroxidase-coupled secondary antibody (Biorad) and enhanced chemiluminescence (Amersham). For reprobing, the membrane was stripped in 70 mM Tris (pH 6.8), 2% SDS, 0.1% P-mercaptoethanol at 55° C. for 30 min. For in vitro kinase assays, immunoprecipitates were washed twice with in 40 mM HEPES (pH 7.5), 20 mM MgCl2, 2 mM MnCl2, 100 μM orthovanadate, 5 μM dATP and incubated with 5 μCi [γ-^32P] ATP at 30° C. for 20 min. The products of the kinase reaction were monitored by SDS-PAGE and autoradiography.

[5] = biological target: T4, DDR1 (Homo sapiens, UniProt Q08345); test: DDR1 tyrosine phosphorylation in transfected 293 cells (anti-phosphotyrosine Western blot); type: cell-based; settings: 90 min; for ligand activity: induction of DDR1 (DDR1b) tyrosine phosphorylation: soluble agent added to medium of transfected 293 cells, 10 μg/ml
T4 construct: expressed in transfected cells; host or cells: human embryonic kidney 293 cells, CMV-based expression vector
T4 sequence (Q08345 19-913): as the sequence (Q08345 19-913) above
Procedure: as §1
To identify possible sources for the ligand of DDR1, an in vivo screening system was established. Human embryonic kidney fibroblast 293 cells were transiently transfected with expression plasmids coding for DDR1b. Growth-arrested cells were then stimulated with various agents and monitored for receptor activation by anti-phosphotyrosine Western blotting of total cellular lysates. […] The increase of DDR1b autophosphorylation was dependent on the concentration of matrigel added to the cells (FIG. 7A).

[6] = transfected 293 cells plated on collagen-coated dishes

## CC[C@H](C)[C@H](NC(=O)[C@@H](NC(=O)[C@@H](N)Cc1c[nH]cn1)[C@@H](C)CC)C(=O)N[C@@H](CCC(=O)O)C(=O)N[C@@H](CC(N)=O)C(=O)N1CCC[C@H]1C(=O)N[C@@H](CCC(N)=O)C(=O)N[C@@H](Cc1ccc(OP(=O)(O)O)cc1)C(=O)N[C@@H](Cc1ccccc1)C(=O)N[C@@H](CO)C(=O)N[C@@H](CC(=O)O)C(=O)O [NGF receptor phosphopeptide, HIIENPQpYFSD] (H-HIIENPQ[pY]FSD-OH; N-terminus and C-terminus assumed)
[1]
  IC50: ~100 nM and 70 nM

## C[C@@H]1C[C@@H]([C@H](O)CC2CC(=O)NC(=O)C2)C(=O)[C@@H](C)C1 [cycloheximide, reference compound]
[2]; treatment of cells, data not shown
  effect on ability of collagen to induce DDR tyrosine phosphorylation: not inhibited

## [O]=[V]([O-])([O-])[O-] [orthovanadate, reference compound]
[3]
  tyrosine phosphorylation of endogenous DDR1b in T-47D cells: activated

## chondroitin-sulphate A
[2]
  effect on DDR activity: no effect

## collagen type II: collagen type II from bovine tracheal cartilage
[3]
  tyrosine phosphorylation of endogenous DDR1b in T-47D cells: lower, but still detectable
[4]
  ligand activity: induction of DDR2 tyrosine phosphorylation: moderate activity

## collagen type III: collagen type III purified from human placenta
[5]
  ligand activity: induction of DDR1 (DDR1b) tyrosine phosphorylation: equally good ligands
[5]; [6]
  DDR1b tyrosine phosphorylation on immobilized collagen: further increased
[3]
  tyrosine phosphorylation of endogenous DDR1b in T-47D cells: lower, but still detectable
[4]
  ligand activity: induction of DDR2 tyrosine phosphorylation: highly potent ligands; also recorded: highly activated
[4]; [6]
  DDR2 tyrosine phosphorylation on immobilized collagen: triggered

## fibronectin
[5]
  ligand activity: induction of DDR1 (DDR1b) tyrosine phosphorylation: neither

## gelatin
[3]
  tyrosine phosphorylation of endogenous DDR1b in T-47D cells: did not induce an increase

## heparin
[2]
  effect on DDR activity: no effect

## laminin
[5]
  ligand activity: induction of DDR1 (DDR1b) tyrosine phosphorylation: neither
